Test results reported in patent US20160297830A1, “NOVEL COMPOUNDS USEFUL FOR THE TREATMENT OF BACTERIAL INFECTIOUS DISEASES” (GALAPAGOS NV, priority 2013, published 2016).
pIC50: −log10 of the molar value. Values after ≈ are worked out from the molar mass of the structure shown. Read-outs that look alike come from different tables or passages of the source.

Legend:
[1] = tested on: H. influenza Hi106 ATCC 51907; test: organism not typed; assay type: cell-based; details: read-out: MIC Hi106
[2] = tested on: S. aureus Sa2 clinical strain NCIMB 41953, MRSA; test: microbe, parasite or virus in culture; assay type: cell-based; details: Staphylococcus aureus, read-out: MIC Sa2
[3] = tested on: E. coli Ec50 efflux pump KO; test: microbe, parasite or virus in culture; assay type: cell-based; details: Escherichia coli, read-out: MIC Ec50 efflux pump KO
[4] = tested on: H. influenza Hi3 ATCC 31517; test: organism not typed; assay type: cell-based; details: read-out: MIC Hi3
[5] = tested on: S. aureus Sa26 ATCC 25923; test: Antibacterial activity assay (MIC), S. aureus Sa26; assay type: cell-based; details: Staphylococcus aureus
[6] = target: DNA Polymerase IIIα (DnaE) from Staphylococcus aureus (Staphylococcus aureus, UniProt Q6GG04); test: biochemical
Chain of DNA Polymerase IIIα (DnaE) from Staphylococcus aureus (Q6GG04 1-1022): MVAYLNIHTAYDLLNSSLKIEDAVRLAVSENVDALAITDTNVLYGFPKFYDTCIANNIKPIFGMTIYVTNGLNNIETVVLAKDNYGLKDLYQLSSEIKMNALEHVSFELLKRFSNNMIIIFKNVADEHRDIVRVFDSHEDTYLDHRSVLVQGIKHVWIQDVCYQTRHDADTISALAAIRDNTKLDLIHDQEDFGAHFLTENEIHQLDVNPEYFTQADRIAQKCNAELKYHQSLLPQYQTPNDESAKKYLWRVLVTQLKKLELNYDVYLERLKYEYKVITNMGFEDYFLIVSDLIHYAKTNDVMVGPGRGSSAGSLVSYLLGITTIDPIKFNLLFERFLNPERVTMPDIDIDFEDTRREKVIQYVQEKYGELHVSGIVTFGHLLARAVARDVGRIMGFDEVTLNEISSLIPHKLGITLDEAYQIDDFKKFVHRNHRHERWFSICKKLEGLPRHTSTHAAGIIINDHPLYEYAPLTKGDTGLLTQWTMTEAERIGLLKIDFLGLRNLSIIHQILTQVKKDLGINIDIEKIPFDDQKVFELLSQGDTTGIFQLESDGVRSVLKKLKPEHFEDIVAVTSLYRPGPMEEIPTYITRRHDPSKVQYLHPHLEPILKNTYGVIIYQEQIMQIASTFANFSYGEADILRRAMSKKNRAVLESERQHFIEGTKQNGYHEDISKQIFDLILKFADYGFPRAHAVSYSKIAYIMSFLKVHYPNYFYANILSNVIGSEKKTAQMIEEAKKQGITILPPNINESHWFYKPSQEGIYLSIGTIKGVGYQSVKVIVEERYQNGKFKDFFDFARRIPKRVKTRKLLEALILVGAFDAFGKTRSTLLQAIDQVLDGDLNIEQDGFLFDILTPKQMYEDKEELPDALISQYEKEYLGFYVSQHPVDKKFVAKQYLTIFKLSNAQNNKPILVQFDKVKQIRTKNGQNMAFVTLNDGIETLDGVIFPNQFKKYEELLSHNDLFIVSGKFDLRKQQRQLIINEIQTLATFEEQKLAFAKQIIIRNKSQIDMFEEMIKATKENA

S. aureus Sa1 ATCC 13709 = test: microbe, parasite or virus in culture; assay type: cell-based; details: Staphylococcus aureus
E. coli Ec1 ATCC 25922 = test: Antibacterial activity assay (MIC), E. coli Ec1; assay type: cell-based; details: Escherichia coli
S. aureus Sa4 NCTC 6571 = test: Antibacterial activity assay (MIC), S. aureus Sa4; assay type: cell-based; details: Staphylococcus aureus
[7] = tested on: H. influenza Hi47 clinical strain, Ampicillin Resistant; test: organism not typed; assay type: cell-based; details: read-out: MIC Hi47
DNA III Polymerase E = DNA III Polymerase E (Escherichia coli, UniProt P10443); test: In vitro activity against DNA III Polymerase E, E. coli; assay type: biochemical
Chain of DNA III Polymerase E (P10443 whole entry): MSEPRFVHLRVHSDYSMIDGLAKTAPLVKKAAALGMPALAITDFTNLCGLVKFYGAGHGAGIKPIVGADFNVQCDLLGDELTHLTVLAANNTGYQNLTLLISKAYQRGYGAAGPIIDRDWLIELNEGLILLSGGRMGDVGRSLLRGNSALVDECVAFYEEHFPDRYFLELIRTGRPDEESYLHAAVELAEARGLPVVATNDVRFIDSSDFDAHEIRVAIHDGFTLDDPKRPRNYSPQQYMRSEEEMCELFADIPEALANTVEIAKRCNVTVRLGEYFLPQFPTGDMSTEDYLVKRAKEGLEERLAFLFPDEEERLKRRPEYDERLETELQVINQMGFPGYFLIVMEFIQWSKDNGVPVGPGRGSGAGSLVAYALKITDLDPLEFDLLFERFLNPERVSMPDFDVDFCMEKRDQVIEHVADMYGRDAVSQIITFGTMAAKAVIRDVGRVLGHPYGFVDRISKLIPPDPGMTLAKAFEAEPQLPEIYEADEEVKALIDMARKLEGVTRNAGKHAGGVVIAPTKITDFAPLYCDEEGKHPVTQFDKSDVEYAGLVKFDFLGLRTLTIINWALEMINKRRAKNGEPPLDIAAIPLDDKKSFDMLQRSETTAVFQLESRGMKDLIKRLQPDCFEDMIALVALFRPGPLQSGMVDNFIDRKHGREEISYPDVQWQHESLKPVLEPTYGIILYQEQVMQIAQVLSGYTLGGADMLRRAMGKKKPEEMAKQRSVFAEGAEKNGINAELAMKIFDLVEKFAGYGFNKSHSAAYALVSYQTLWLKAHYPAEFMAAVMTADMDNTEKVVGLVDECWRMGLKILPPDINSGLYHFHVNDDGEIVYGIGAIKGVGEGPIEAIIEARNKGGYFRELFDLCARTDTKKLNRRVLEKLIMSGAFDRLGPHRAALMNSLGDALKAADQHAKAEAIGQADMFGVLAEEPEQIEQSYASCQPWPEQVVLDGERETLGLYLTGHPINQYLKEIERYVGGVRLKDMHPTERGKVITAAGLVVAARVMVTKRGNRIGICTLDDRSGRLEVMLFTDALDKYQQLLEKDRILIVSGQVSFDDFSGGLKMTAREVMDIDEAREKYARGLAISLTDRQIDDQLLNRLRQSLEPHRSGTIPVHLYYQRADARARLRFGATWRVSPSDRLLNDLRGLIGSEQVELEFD
Method: A radioactive filterplate assay was used to assess inhibitory activity of compounds on DNA Polymerase IIIα. Five μL of a dilution series of compound, starting from 100 μM highest concentration, 1/5 dilution, was added to the wells of a 96 well plate. Recombinant enzyme was diluted to 0.47 μg/mL in a buffer containing 20 mM Tris pH7.5, 8 mM DTT, 10 mM MgOAc, 0.05% CHAPS and 10 μL thereof was added to the compound dilutions. The reaction was started with the addition of 10 μL substrate in the same buffer, containing activated calf thymus DNA (Sigma, D4522), dATP, dGTP, dCTP, dTTP (Invitrogen) and [α-33P]-dTTP (Perkin Elmer, NEG605H001) at a concentration of 62.5 μg/mL, 50 nM and 7.5 μCi/mL respectively. The mixture was incubated at 30° C. for 120 minutes and terminated by addition of phosphoric acid. Samples were transferred to filter plates and incorporated radioactivity was measured by the Topcount. Data were converted to percent inhibition with respect to positive and negative controls. IC50 values were calculated using Graph Prism™ software.

[8] = tested on: H. influenza Hi10 clinical strain; test: organism not typed; assay type: cell-based; details: read-out: MIC Hi10
[9] = tested on: E. coli Ec113 efflux pump KO; test: microbe, parasite or virus in culture; assay type: cell-based; details: Escherichia coli, read-out: MIC Ec113 efflux pump KO
[10] = ATCC25923, read-out: MIC Sa26 + 10% SH
[11] = ATCC25923, read-out: MIC Sa26 + 50% SH
[12] = DNA polymerase III, E. coli, read-out: IC50 semiquantitative scoring, E. coli
[13] = ATCC25923, read-out: MIC Sa26 + 10% SH, S. aureus Sa26 + 10% SH
[14] = ATCC25923, read-out: MIC Sa26 + 50% SH, S. aureus Sa26 + 50% SH
[15] = ATCC25923, S. aureus Sa26 ATCC 25923, sensitive strain, Mueller-Hinton Broth, 37° C., read-out: MIC Sa26
[16] = ATCC13709, S. aureus Sa1 ATCC 13709, sensitive strain, Mueller-Hinton Broth, 37° C., read-out: MIC Sa1
[17] = ATCC25922, E. coli Ec1 ATCC 25922, sensitive strain, read-out: MIC Ec1
[18] = NCTC6571, S. aureus Sa4 NCTC 6571, sensitive strain, read-out: MIC Sa4

SMILES	MIC [1] [µg/mL]	MIC [2] [µg/mL]	MIC [3] [µg/mL]	MIC [4] [µg/mL]	MIC ([5]; ATCC25923, read-out: MIC Sa26) [µg/mL]	MIC [5, 10] [µg/mL]	MIC [5, 11] [µg/mL]	pIC50 [6]	MIC (S. aureus Sa1 ATCC 13709; ATCC13709, read-out: MIC Sa1) [µg/mL]	MIC (E. coli Ec1 ATCC 25922; ATCC25922, read-out: MIC Ec1) [µg/mL]	MIC (S. aureus Sa4 NCTC 6571; NCTC6571, read-out: MIC Sa4) [µg/mL]	MIC [7] [µg/mL]	pIC50 (DNA III Polymerase E; [12])	MIC [8] [µg/mL]	MIC [9] [µg/mL]	MIC [5, 13] [µg/mL]	MIC [5, 14] [µg/mL]	MIC [5, 15] [µg/mL]	MIC (S. aureus Sa1 ATCC 13709; [16]) [µg/mL]	MIC (E. coli Ec1 ATCC 25922; [17]) [µg/mL]	also measured
CO[C@H]1C[C@H]2C=C[C@H]3[C@H]4O[C@]2(/C(C)=C/[C@@H](C)[C@@H]([C@@H](C)O)OC1=O)[C@@H]3[C@H](O)[C@@H](C)[C@H]4O [Nodusmicin, reference compound]	64 (≈ 151 µM)	> 64	1 (≈ 2.37 µM)	64 (≈ 151 µM)	> 64	> 64	> 64	5.63 to 8.63	> 64	> 64	> 64	32 (≈ 75.7 µM)	4.63 to 5.63	64 (≈ 151 µM)	0.25 (≈ 0.592 µM)						
COC[C@@H]1[C@@H](O)[C@@H]2[C@H]3C=C[C@@H]4C[C@H](O)C(=O)O[C@H]([C@H](O)COC)[C@H](C)/C=C(\C)[C@@]24O[C@H]3[C@@H]1OC(=O)c1ccc[nH]1 [Nargenicin B1, reference compound]	> 64	0.5 (≈ 0.89 µM)	16 (≈ 28.5 µM)	> 64	2 (≈ 3.56 µM)	2	1	5.75 to 8.75	1 (≈ 1.78 µM)	> 64	0.5 (≈ 0.89 µM)	> 64	< 4.75	> 64	2 (≈ 3.56 µM)						
COC[C@@H]1[C@@H](O)[C@@H]2[C@H]3C=C[C@@H]4[C@@H](COC)C(=O)O[C@H]([C@H](O)COC)[C@H](C)/C=C(\C)[C@@]24O[C@H]3[C@@H]1OC(=O)c1cc[nH]n1 [Compound 10, 8-O-1H-Pyrazole-3′-carbonylbranimycin]	> 64	16 (≈ 27.7 µM)	> 64	> 64				5.76 to 8.76				> 64		> 64	16 (≈ 27.7 µM)	16	8	16 (≈ 27.7 µM)	16 (≈ 27.7 µM)	> 64	MIC (S. aureus Sa4 NCTC 6571; [18]): 16 µg/mL (≈ 27.7 µM); pIC50 (DNA III Polymerase E): < 4.76
COC[C@@H]1[C@@H](O)[C@@H]2[C@H]3C=C[C@@H]4[C@@H](COC)C(=O)O[C@H]([C@H](O)COC)[C@H](C)/C=C(\C)[C@@]24O[C@H]3[C@@H]1OC(=O)c1ccsc1 [Compound 9, 8-O-Thiophene-3′-carbonylbranimycin]	> 64	4 (≈ 6.75 µM)	> 64	> 64								> 64	< 4.77	> 64	4 (≈ 6.75 µM)	2	4	2 (≈ 3.37 µM)	4 (≈ 6.75 µM)	> 64	pIC50 ([6]; DNA polymerase III, S. aureus, read-out: IC50 semiquantitative scoring, S. aureus): 5.77 to 8.77; MIC (S. aureus Sa4 NCTC 6571; [18]): 2 µg/mL (≈ 3.37 µM)
COC[C@@H]1[C@@H](O)[C@@H]2[C@H]3C=C[C@@H]4[C@@H](COC)C(=O)O[C@H]([C@H](O)COC)[C@H](C)/C=C(\C)[C@@]24O[C@H]3[C@@H]1OC(=O)c1cnco1 [Compound 14, 8-O-Oxazole-5′ carbonylbranimycin]	> 64	> 64	> 64	> 64	> 64	> 64	> 64	4.76 to 5.76	> 64	> 64	> 64	> 64	< 4.76	> 64	16 (≈ 27.7 µM)						
COCC(=NO)[C@H]1OC(=O)[C@H](COC)[C@H]2C=C[C@H]3[C@H]4O[C@]2(/C(C)=C/[C@H]1C)[C@@H]3[C@H](O)[C@@H](COC)[C@H]4OC(=O)c1cc(F)c[nH]1 [Compound 40, 18-Deoxy-18-oximino-8-O-4-Fluoro-1H-pyrrole-2′-carbonylbranimycin]	> 64	0.25 (≈ 0.412 µM)	16 (≈ 26.4 µM)	> 64				5.78 to 8.78				> 64	5.78 to 8.78	64 (≈ 105 µM)	0.25 (≈ 0.412 µM)	1	1	1 (≈ 1.65 µM)	0.25 (≈ 0.412 µM)	> 64	MIC (S. aureus Sa4 NCTC 6571; [18]): 0.12 µg/mL (≈ 0.198 µM)
